Data set [1] is described as follows: Chemical stability in PBS buffer solution (pH 7.4). Format: physicochemical. To be noted: PBS buffer solution pH 7.4, 37° C., HPLC; read-out: Chemical stability t1/2. How it is done:
The compounds of the present invention (A-5, A-8, A-9, A-11, A-12, A-14, A-15, A-16, A-19, A-23, A-24, A-35 and A-36) were each dissolved in DMSO to a concentration of 10 mM and then mixed with a PBS buffer solution (pH 7.4) to prepare as a solution having a concentration of 500 μM (5% DMSO). MPS, used as a standard substance, was also prepared as a solution having a concentration of 500 μM in a PBS buffer solution. 420 μL of a PBS buffer solution and 140 μL of each of 500 μM compounds of the present invention and MPS were mixed to prepare a total of 700 μL of reaction solution. The reaction of the mixed solution was initiated in a constant temperature incubator at 37° C. The reaction solution was aliquoted in an amount of 70 μL at 0 minutes before the reaction and at certain times after the reaction, and the remaining compounds of the present invention or MPS or the liberated MMAF were quantitatively analyzed using the HPLC method. […] In addition, the remaining amount of Compound A-19 in a PBS buffer solution (pH 7.4) according to the incubation time is shown in FIG. 4.

Another data set in a line: Mouse plasma stability. It is filed as in vitro ADME. To be noted: Method 1 (mouse plasma), 37° C., read-out: Plasma stability t1/2. How it is done:
Method 1: Mouse Plasma Stability
(§1) The compounds of the present invention (A-5, A-9, A-14, A-19, A-35, A-36) and MPS, used as a standard substance, were each dissolved in DMSO and a PBS buffer solution to a concentration of 30 mM, and then mixed in mouse plasma (Biochemed, 029-APSC-PMG) to a final concentration of 300 μM (final 1.0% DMSO) and 600 μM of the compounds and MPS, respectively. The reaction of the mixed solution in plasma was initiated in a constant temperature incubator at 37° C. Before the reaction and on certain days after the reaction, the above samples were aliquoted in an amount of 100 μL, and 200 μL of acetonitrile (ACN, Sigma, SA-271004-1L) was added to terminate the reaction, mixed, and then vortexed for about 1 minute, and then centrifuged (Beckman, B30150) at 4° C. for 15 minutes at 14,000 rpm to precipitate plasma proteins. Each supernatant obtained by centrifugation was collected and quantitatively analyzed using the HPLC method.
(§2) The results of measuring the plasma half-life of the compounds of the present invention using Methods 1 to 4 above are shown in Table 3.

A short description of a further data set: Human plasma stability. It is filed as in vitro ADME. To be noted: Method 2 (human plasma), 37° C., read-out: Plasma stability t1/2. How it is done:
Method 2: Human Plasma Stability
as §1, with “(A-8,” for “(A-5,”, “human” for “mouse”, “752PR—SC-PMG)” for “029-APSC-PMG)”, “ACN” for “acetonitrile (ACN, Sigma, SA-271004-1L)”, “centrifuged” for “centrifuged (Beckman, B30150)”
as §2

Another data set is described as follows: Rat plasma stability. Particulars: Method 3 (rat plasma), 37° C., read-out: Plasma stability t1/2. It is filed as in vitro ADME. How it is done:
Method 3: Rat Plasma Stability
as §1, with “(A-19,” for “(A-5, A-9, A-14, A-19, A-35,”, “rat” for “mouse”, “031-APSC-PMG)” for “029-APSC-PMG)”, “ACN” for “acetonitrile (ACN, Sigma, SA-271004-1L)”, “centrifuged” for “centrifuged (Beckman, B30150)”
as §2

Data set [2] in a line: Beagle dog plasma stability. It is filed as in vitro ADME. Particulars: Method 4 (beagle dog plasma), 37° C., read-out: Plasma stability t1/2. As to the method: Method 4: Beagle Dog Plasma Stability
as §1, with “(A-19,” for “(A-5, A-9, A-14, A-19, A-35,”, “beagle dog” for “mouse”, “014-APSC-PMG)” for “029-APSC-PMG)”, “ACN” for “acetonitrile (ACN, Sigma, SA-271004-1L)”, “centrifuged” for “centrifuged (Beckman, B30150)”
as §2

This is an account of results in US20260248936A1, “NOVEL LINKER COMPOUND AND LIGAND-DRUG CONJUGATE THEREFOR” (priority 2022, published 2026).

Numbered stars: 1 amine (or outer) side, 2 acyl side, 3 side chain; on linkers, the order of the positions; unused ones are H or OH. Square brackets hold non-standard residues; d marks the D form. Peptide text beside a SMILES is read from it. * marks the point of attachment. ξ: configuration not given here. X2 = C#CCC(OC(=O)*)c1ccc(O[C@@H]2O[C@H](CO)[C@H](O)[C@H](O)[C@H]2O)c2cc(C(=O)O)oc12; X3 = C#CCC(OC(=O)*)c1ccc(O[C@@H]2O[C@H](CO)[C@H](O)[C@H](O)[C@H]2O)c2cc(C(=O)O)sc12; X1 = O=C(O)CCc1cc2c(O[C@@H]3O[C@H](CO)[C@H](O)[C@H](O)[C@H]3O)ccc(COC(=O)*)c2s1; Dil(5ξ) = CCC(C)[C@@H]([C@@H](CC(=O)[*:2])OC)N(C)[*:1]; Dolaproine = CO[C@@H]([C@@H]1CCCN1)[C@@H](C)C(=O)O; NMeV = CN[C@H](C(=O)O)C(C)C; ξF = NC(Cc1ccccc1)C(=O)O

For the compound `CCC(C)[C@@H]([C@@H](CC(=O)N1CCC[C@H]1[C@H](OC)[C@@H](C)C(=O)NC(Cc1ccccc1)C(=O)O)OC)N(C)C(=O)[C@@H](NC(=O)[C@H](C(C)C)N(C)C(=O)OCc1ccc(O[C@@H]2O[C@H](CO)[C@H](O)[C@H](O)[C@H]2O)c2cc(CCC(=O)O)sc12)C(C)C` (some centres unmarked) [Compound A-5] (X1-[NMeV]V[Dil(5ξ)][Dolaproine][ξF]-OH), in data set [1], the half-life at 100 µM is above 168 h. In “Mouse plasma stability”, the half-life at 300 µM was above 168 h.
Turning to `CCC(C)[C@@H]([C@@H](CC(=O)N1CCC[C@H]1[C@H](OC)[C@@H](C)C(=O)NC(Cc1ccccc1)C(=O)O)OC)N(C)C(=O)[C@@H](NC(=O)[C@H](C(C)C)N(C)C(=O)OCc1ccc(O[C@@H]2O[C@H](CO)[C@H](O)[C@H](O)[C@H]2O)c2cc(Cn3cc(COCCOCCOCCOC)nn3)sc12)C(C)C` (some centres unmarked) [Compound A-8], the half-life at 100 µM in data set [1] was above 168 h. Besides, the half-life at 300 µM in the data set “Human plasma stability” is above 168 h.
For the compound `C#CCC(OC(=O)N(C)[C@H](C(=O)N[C@H](C(=O)N(C)[C@@H](C(C)CC)[C@@H](CC(=O)N1CCC[C@H]1[C@H](OC)[C@@H](C)C(=O)NC(Cc1ccccc1)C(=O)O)OC)C(C)C)C(C)C)c1ccc(O[C@@H]2O[C@H](CO)[C@H](O)[C@H](O)[C@H]2O)c2cc(C(=O)O)sc12` (some centres unmarked) [Compound A-11] (X3-[NMeV]V[Dil(5ξ)][Dolaproine][ξF]-OH), the half-life at 100 µM in data set [1] was above 168 h.
With `C#CCC(OC(=O)N(C)[C@H](C(=O)N[C@H](C(=O)N(C)[C@@H](C(C)CC)[C@@H](CC(=O)N1CCC[C@H]1[C@H](OC)[C@@H](C)C(=O)NC(Cc1ccccc1)C(=O)O)OC)C(C)C)C(C)C)c1ccc(O[C@@H]2O[C@H](CO)[C@H](O)[C@H](O)[C@H]2O)c2cc(CCC(=O)O)sc12` (some centres unmarked) [Compound A-12], the half-life at 100 µM in data set [1] was above 168 h.
As to `C#CCC(OC(=O)N(C)[C@H](C(=O)N[C@H](C(=O)N(C)[C@@H](C(C)CC)[C@@H](CC(=O)N1CCC[C@H]1[C@H](OC)[C@@H](C)C(=O)NC(Cc1ccccc1)C(=O)O)OC)C(C)C)C(C)C)c1ccc(O[C@@H]2O[C@H](CO)[C@H](O)[C@H](O)[C@H]2O)c2cc(C(=O)O)oc12` (some centres unmarked) [Compound A-15] (X2-[NMeV]V[Dil(5ξ)][Dolaproine][ξF]-OH), the half-life at 100 µM in data set [1] was above 168 h.
`C#CCC(OC(=O)N(C)[C@H](C(=O)N[C@H](C(=O)N(C)[C@@H](C(C)CC)[C@@H](CC(=O)N1CCC[C@H]1[C@H](OC)[C@@H](C)C(=O)NC(Cc1ccccc1)C(=O)O)OC)C(C)C)C(C)C)c1ccc(O[C@@H]2O[C@H](CO)[C@H](O)[C@H](O)[C@H]2O)c2cc(CCCC(=O)O)oc12` (some centres unmarked) [Compound A-16]: in data set [1], the half-life at 100 µM is above 168 h.
For `CCC(C)[C@@H]([C@@H](CC(=O)N1CCC[C@H]1[C@H](OC)[C@@H](C)C(=O)NC(Cc1ccccc1)C(=O)O)OC)N(C)C(=O)[C@@H](NC(=O)[C@H](C(C)C)N(C)C(=O)OCc1cc2c(O[C@@H]3O[C@H](CO)[C@H](O)[C@H](O)[C@H]3O)ccc(COC(=O)N(C)[C@H](C(=O)N[C@H](C(=O)N(C)[C@@H](C(C)CC)[C@@H](CC(=O)N3CCC[C@H]3[C@H](OC)[C@@H](C)C(=O)NC(Cc3ccccc3)C(=O)O)OC)C(C)C)C(C)C)c2o1)C(C)C` (some centres unmarked) [Compound A-24], the half-life at 100 µM in data set [1] was above 168 h.
Turning to `C#CCC(OC(=O)N(C)[C@H](C(=O)N[C@H](C(=O)N(C)[C@@H](C(C)CC)[C@@H](CC(=O)N1CCC[C@H]1[C@H](OC)[C@@H](C)C(=O)NC(Cc1ccccc1)C(=O)O)OC)C(C)C)C(C)C)c1ccc(O[C@@H]2O[C@H](CO)[C@H](O)[C@H](O)[C@H]2O)c2cc(COC(=O)N(C)[C@H](C(=O)N[C@H](C(=O)N(C)[C@@H](C(C)CC)[C@@H](CC(=O)N3CCC[C@H]3[C@H](OC)[C@@H](C)C(=O)NC(Cc3ccccc3)C(=O)O)OC)C(C)C)C(C)C)oc12` (some centres unmarked) [Compound A-35], the half-life at 100 µM in data set [1] is above 168 h. For the same compound, the half-life at 300 µM in the data set “Mouse plasma stability” and in the data set “Human plasma stability” was above 168 h in each case.
Consider `C#CCC(OC(=O)N(C)[C@H](C(=O)N[C@H](C(=O)N(C)[C@@H](C(C)CC)[C@@H](CC(=O)N1CCC[C@H]1[C@H](OC)[C@@H](C)C(=O)N[C@H](C)[C@@H](O)c1ccccc1)OC)C(C)C)C(C)C)c1ccc(O[C@@H]2O[C@H](C(=O)O)[C@H](O)[C@H](O)[C@H]2O)c2cc(CCC(=O)O)[se]c12` (some centres unmarked) [Compound A-36], for which the half-life at 300 µM (in the data set “Rat plasma stability”; in data set [2]; in the data set “Mouse plasma stability”; in “Human plasma stability”) was above 168 h throughout. For the same compound, in data set [1], the half-life at 100 µM was above 168 h.
